Source: paper PMC9639207 (RSC Advances, 2022)

Tests used:
[1] = In vitro stability on incubation with mouse serum; assay type: in vitro ADME; settings: for half-life at 200 µM: mouse, serum
[2] = biological target: dipeptidyl peptidase-IV (DPP-IV) (Homo sapiens, UniProt P27487); assay: In vitro proteolytic stability against DPP-IV; assay type: in vitro ADME; settings: for half-life: isolated enzyme dpp iv, pH 7.4
Chain of dipeptidyl peptidase-IV (DPP-IV) (P27487 whole entry, species assumed): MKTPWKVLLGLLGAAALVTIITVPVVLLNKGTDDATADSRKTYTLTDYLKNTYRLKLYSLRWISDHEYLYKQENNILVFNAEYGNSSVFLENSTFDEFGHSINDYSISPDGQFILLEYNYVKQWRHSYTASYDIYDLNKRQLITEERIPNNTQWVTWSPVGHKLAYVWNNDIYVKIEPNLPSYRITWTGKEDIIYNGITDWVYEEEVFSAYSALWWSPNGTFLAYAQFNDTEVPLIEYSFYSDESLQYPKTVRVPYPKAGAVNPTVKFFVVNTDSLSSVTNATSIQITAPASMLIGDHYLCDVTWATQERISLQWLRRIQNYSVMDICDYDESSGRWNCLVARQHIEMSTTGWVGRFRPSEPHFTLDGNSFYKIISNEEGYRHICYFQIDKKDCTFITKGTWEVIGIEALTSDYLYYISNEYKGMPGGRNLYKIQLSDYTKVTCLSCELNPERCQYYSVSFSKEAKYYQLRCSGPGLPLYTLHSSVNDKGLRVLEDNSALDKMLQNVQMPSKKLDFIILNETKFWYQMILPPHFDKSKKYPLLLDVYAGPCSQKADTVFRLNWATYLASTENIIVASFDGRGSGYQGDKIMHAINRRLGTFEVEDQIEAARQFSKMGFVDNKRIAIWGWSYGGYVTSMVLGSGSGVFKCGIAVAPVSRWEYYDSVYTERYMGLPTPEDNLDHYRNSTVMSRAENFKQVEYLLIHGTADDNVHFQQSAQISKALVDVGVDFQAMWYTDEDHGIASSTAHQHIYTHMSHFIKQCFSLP

Row | SMILES | half-life at 200 µM [1] [min] | half-life [2] [min] | Fold in vitro half-life relative to native GLP-1, serum incubation ([1]; ratio to native GLP-1 (55.7 min), mouse serum, 37 °C) [fold] | Fold in vitro half-life relative to native GLP-1, DPP-IV incubation ([2]; ratio to native GLP-1 (10.2 min), DPP-IV, 37 °C) [fold]
1 | CC[C@H](C)[C@H](NC(=O)[C@H](Cc1ccccc1)NC(=O)[C@H](CCC(=O)O)NC(=O)[C@H](CCCCN)NC(=O)[C@H](C)NC(=O)[C@H](C)NC(=O)[C@H](CCC(N)=O)NC(=O)CNC(=O)[C@H](CCC(=O)O)NC(=O)[C@H](CC(C)C)NC(=O)[C@H](Cc1ccc(O)cc1)NC(=O)[C@H](CO)NC(=O)[C@H](CO)NC(=O)[C@@H](NC(=O)[C@H](CC(=O)O)NC(=O)[C@H](CO)NC(=O)[C@@H](NC(=O)[C@H](Cc1ccccc1)NC(=O)[C@@H](NC(=O)CNC(=O)[C@H](CCC(=O)O)NC(=O)[C@H](C)NC(=O)[C@@H](N)Cc1c[nH]cn1)[C@@H](C)O)[C@@H](C)O)C(C)C)C(=O)N[C@@H](C)C(=O)N[C@@H](Cc1c[nH]c2ccccc12)C(=O)N[C@@H](CC(C)C)C(=O)N[C@H](C(=O)N[C@@H](CC(=O)N[C@@H]1O[C@H](CO)[C@@H](O[C@@H]2O[C@H](CO)[C@@H](O[C@@H]3O[C@H](CO[C@H]4O[C@H](CO)[C@@H](O)[C@H](O)[C@@H]4O[C@@H]4O[C@H](CO)[C@@H](O[C@@H]5O[C@H](CO)[C@H](O)[C@H](O)[C@H]5O)[C@H](O)[C@H]4NC(C)=O)[C@@H](O)[C@H](O[C@H]4O[C@H](CO)[C@@H](O)[C@H](O)[C@@H]4O[C@@H]4O[C@H](CO)[C@@H](O[C@@H]5O[C@H](CO)[C@H](O)[C@H](O)[C@H]5O)[C@H](O)[C@H]4NC(C)=O)[C@@H]3O)[C@H](O)[C@H]2NC(C)=O)[C@H](O)[C@H]1O)C(=O)NCC(=O)N[C@H](C(=O)NCC(=O)O)[C@@H](C)O)C(C)C [Glycan-GLP-1-5(G2)] | 390 ± 13.5 | 182 ± 0.1 | – | –
2 | CC[C@H](C)[C@H](NC(=O)[C@H](Cc1ccccc1)NC(=O)[C@H](CCC(=O)O)NC(=O)[C@H](CCCCN)NC(=O)[C@H](C)NC(=O)[C@H](C)NC(=O)[C@H](CCC(N)=O)NC(=O)CNC(=O)[C@H](CCC(=O)O)NC(=O)[C@H](CC(C)C)NC(=O)[C@H](Cc1ccc(O)cc1)NC(=O)[C@H](CO)NC(=O)[C@H](CO)NC(=O)[C@@H](NC(=O)[C@H](CC(=O)O)NC(=O)[C@H](CO)NC(=O)[C@@H](NC(=O)[C@H](Cc1ccccc1)NC(=O)[C@@H](NC(=O)CNC(=O)[C@H](CCC(=O)O)NC(=O)[C@H](C)NC(=O)[C@@H](N)Cc1c[nH]cn1)[C@@H](C)O)[C@@H](C)O)C(C)C)C(=O)N[C@@H](C)C(=O)N[C@@H](Cc1c[nH]c2ccccc12)C(=O)N[C@@H](CC(C)C)C(=O)N[C@H](C(=O)N[C@@H](CC(=O)N[C@@H]1O[C@H](CO)[C@@H](O[C@@H]2O[C@H](CO)[C@@H](O[C@@H]3O[C@H](CO[C@H]4O[C@H](CO)[C@@H](O)[C@H](O)[C@@H]4O[C@@H]4O[C@H](CO)[C@@H](O[C@@H]5O[C@H](CO[C@]6(C(=O)O)C[C@H](O)[C@@H](NC(C)=O)[C@H]([C@H](O)[C@H](O)CO)O6)[C@H](O)[C@H](O)[C@H]5O)[C@H](O)[C@H]4NC(C)=O)[C@@H](O)[C@H](O[C@H]4O[C@H](CO)[C@@H](O)[C@H](O)[C@@H]4O[C@@H]4O[C@H](CO)[C@@H](O[C@@H]5O[C@H](CO[C@]6(C(=O)O)C[C@H](O)[C@@H](NC(C)=O)[C@H]([C@H](O)[C@H](O)CO)O6)[C@H](O)[C@H](O)[C@H]5O)[C@H](O)[C@H]4NC(C)=O)[C@@H]3O)[C@H](O)[C@H]2NC(C)=O)[C@H](O)[C@H]1O)C(=O)NCC(=O)N[C@H](C(=O)NCC(=O)O)[C@@H](C)O)C(C)C [Glycan-GLP-1-5(G2S2)] | 777 ± 10.2 | 245.3 ± 1.3 | 13.9 | 24.0
